Here are results for 3 compounds from patent US4061767A, “Cyano acetic acid anilide derivatives, process for their manufacture and compositions containing these compounds” (Hoechst Aktiengesellschaft, priority 1975, dated 1977).

For one data set, the system named is writhing. The data set can be described thus: writhing test on mice (analgesic effect). The following applies: Mus musculus, po, per os, dosis that reduces the number of writhings by 50% vs control. It is filed as in vivo. The protocol: (§1) The ED50 levels were determined graphically on probability paper. In the writhing test, the ED50 is defined to be the dosis of active ingredient that reduces the number of writhings by 50% as compared with a control group. In the adjuvant arthritis test, the effect was judged by observing the inhibition in the secondary lesions, which the animals inflicted to their ears, paws and tails, on the 17th day after the administration of the active substance compositions had started, in comparison with a control group. ED50 is considered the dosis that reduces these lesions by 50% as compared to those of the control group.
On the technique in general: Writhing tests count abdominal constrictions after an irritant is injected.

The test system of a further data set is adjuvant arthritis. Briefly: adjuvant arthritis in rats (anti-inflammatory effect). It is filed as in vivo. Conditions: Rattus norvegicus, po, 408 h, per os, 50% reduction of secondary lesions on the 17th day vs control. The protocol: as §1
Data set [1] in a line: in vivo. The following applies: rat, po. Set-up: species or system male rats of a Sprague-Dawley strain. The protocol: To examine the ulcerogenic activity, the substances to be tested were orally administered to male rats of a Sprague-Dawley strain, that had been kept unfed for 18 hours, and 24 hours after administration, the gastrointestinal tract of the animals was inspected for ulcers.

Data set [2] can be described thus: in vivo. Conditions: rat, po, per os, observation time 7 days.
Source text: ^1) Limits of confidence for p = 0.05 in brackets
^2) Sprague-Dawley rats used as test animals
A short description of data set [3]: in vivo. The following applies: mouse, po, per os, N.M.R.I. mice, observation time 7 days.

Regarding `CCCCC1C(=O)N(c2ccccc2)N(c2ccccc2)C1=O` [Phenylbutazone, phenylbutazone, reference compound], the ED50 (as a rule, the dose at which the effect has come halfway, by size or by number of responders) was 60 to 100 mg/kg in the data set on writhing and 37 mg/kg in the data set on adjuvant arthritis. For the same compound, in “in vivo [1]”, the NOAEL (as a rule, the highest tested level that showed no adverse finding) at 24 h was 63 mg/kg.
Regarding `CC(O)=C(C#N)C(=O)Nc1cccc(Cl)c1` [No. 2], the LD50 (commonly the dose at which mortality reaches 50%) at 168 h in the data set “in vivo [2]” (female Wistar-Lewis rats) was determined as 445 mg/kg; in “in vivo [3]”, 585 mg/kg. Besides, the ED50 was about 25 mg/kg in the data set on writhing and 22 mg/kg in the data set on adjuvant arthritis. In “in vivo [1]”, this compound had an NOAEL at 24 h of 200 mg/kg.
As for `CC(O)=C(C#N)C(=O)Nc1cccc(C(F)(F)F)c1` [compound 11], the LD50 at 168 h in “in vivo [2]” (Sprague-Dawley rats used as test animals (footnote 2)) came out at 670 mg/kg; in “in vivo [3]” it was 660 mg/kg. The ED50 was 25 mg/kg in the data set with writhing and 28 mg/kg with adjuvant arthritis. The NOAEL at 24 h in “in vivo [1]” amounted to 100 mg/kg.
